Some results are limits rather than exact numbers.

The term melting point denotes the temperature of the solid-liquid transition. `OCc1nccc(N2CCOCC2)n1` had a melting point of 76 to 78 °C.

For `CCCCC(CC)n1nnc2c(Nc3c(Br)cc(OC)cc3OC)nc(C)cc21` (configuration not stated), the melting point lay within 127 to 128 °C.

In turn, `C#CCN(c1nnc(C)c2ccccc12)c1nc2ccccc2n1-c1ccccc1` registered a melting point of 50 to 53 °C.

In turn, `COc1ccc(COc2ccc(C(=O)O)cc2OCc2ccc(OC)cc2)cc1` showed a melting point of 171 to 172 °C.

In turn, `Cc1[nH]cnc1CSCCN=C(NCCCc1c[nH]cn1)NC(=O)c1ccccc1` showed a melting point of 98.5 to 100 °C.

`CCCOC(=O)c1cn(CC)c2nc(N3CCNCC3)ncc2c1=O` registered a melting point of 152 °C.

For the compound `C[C@]1(O)c2ccccc2CC[C@H]1O` (relative stereo), the melting point amounted to 75 °C.

In the case of `CC(=O)OCc1c(Br)cccc1N1Cc2cc(C(C)(C)C)sc2C1=O`, the melting point lay in the range of 172 to 173 °C.

The compound `COc1ccccc1CNc1ccc2cc(Nc3nnn(C(C)(C)C)n3)ccc2n1` registered a melting point of 156 °C.

In turn, `COC(=O)C(C)Oc1ccc(NC(=O)OCCO)cc1` (configuration not stated) came in with a melting point of 90.5 to 92.8 °C.

`C[C@H](NC(=O)c1ccc(Cn2nnc(-c3ccc(OC(=O)C(C)(C)C)cc3)n2)cc1)C(=O)O`: the melting point lay within 192 to 195 °C.

`NS(=O)(=O)c1ccccc1S(N)(=O)=O` had a melting point of 250 °C.

In turn, `CCSCc1c(CCN(C)C)[nH]c2ccccc12` showed a melting point of 59 to 61 °C.

With `CCc1ccc(Nc2nc3cc(NC(=O)c4cc(OC)c(OC)c(OC)c4)ccc3o2)cc1`, the melting point was greater than 250 °C.

For the compound `COc1ccc(C(=O)Nc2ccccc2)cc1Nc1cccc(C(F)(F)F)c1`, the melting point was in the range of 183 to 184 °C.

Turning to `Cc1ccc2nc(CN3CCN(c4ccc(F)cc4)CC3)cn2c1`, the melting point was determined as 112 °C.

`COCC(OC(C)=O)C1CC(O)C2(C)CCC3C(CCC4=CC(=O)C=C(C)C43C)C12` (configuration not stated) yielded a melting point of 203 to 204 °C.

Consider `C=CCN(CC=C)c1nc(NC(=O)Cc2ccsc2)n2oc(=O)nc2n1`, for which the melting point lay within 159 to 161 °C.

Compound `COc1cc(-c2cnc3[nH]cc(C(=O)C(=O)N(C)C)c3n2)cc(OC)c1OC` came in with a melting point of 227 to 228 °C.

`COc1cccc(-c2ccc3[nH]c4c(ccc5cc[nH]c54)c3c2)c1` returned a melting point of 202 to 205 °C.

`CC(C)Oc1cc(CCCOc2nc(Cc3ccccc3)sc2CC(=O)O)n(Cc2ccc(Cl)cc2Cl)n1` returned a melting point of 106 to 108 °C.

The compound `CCCCCCCCCCCCCCCC(=O)Nc1cc(C(=O)O)ccc1C` had a melting point of 238 to 240 °C.

Turning to `N#CC(N)(N)c1cccnc1`, the melting point turned out to be 158 °C.

Regarding `O=C(CCn1ccnc1)N1c2ccccc2Sc2ccccc21`, the melting point lay within 150 to 152 °C.

Regarding `CC(=NOCCOc1ccc(CC2SC(=O)NC2=O)cc1)c1ccc2ccccc2c1` (configuration not stated), the melting point was in the range of 138 to 139 °C.

As to `Cn1cnnc1COc1nn2c(-c3ccccc3F)nnc2cc1C1CCC1`, the melting point is 228 °C.

As to `CNc1nc(-c2ccc(F)cc2)c(I)c(C(C)C)n1`, the melting point fell in the range of 195 to 196 °C.

Consider `CCCCCCOC(=O)COc1ccc(F)c(C(N)=O)c1F`, for which the melting point is 108 °C.

As to `c1cc(CN2CCCCC2)cc(OCCCNc2nccc3ccccc23)c1`, the melting point is 103 to 105 °C.

With `O=C(NO)[C@H]1CN(C(=O)Nc2ccccc2)CCN1S(=O)(=O)c1ccc(-c2ccc(F)cc2)s1`, the melting point was in the range of 187 to 188 °C.

`O=C(O)CCCc1cc2nc(Cl)ccc2n1S(=O)(=O)c1ccc(C(F)(F)F)cc1` had a melting point of 185 °C.

`Cc1cccc2sc(-n3nc4c(c3O)-c3ccccc3CC4)nc12` came in with a melting point of 224 to 225 °C.

In the case of `CCc1nc2c(N)nc(C)c(C)c2n1CCCC(N)=O`, the melting point is 228 to 230 °C.

The compound `CCOc1ccc2c(c1)C(c1ccccc1Cl)C(=O)N2` (configuration not stated) yielded a melting point of 176 to 180 °C.

Compound `COc1ccc(F)cc1C(C)(C)CC(O)(Cn1cnc(=O)c2ccccc21)C(F)(F)F` (configuration not stated) displayed a melting point of 118 to 121 °C.

`c1ccc(CN2C(=NCCCn3ccnc3)c3cccc4cccc2c34)cc1`: the melting point fell in the range of 90 to 93 °C.

In turn, `COc1ccc(CCNC(=O)CCCCC(=O)NCCc2ccc(OC)c(OC)c2CCc2cccc(OC)c2)cc1` returned a melting point of 153 to 155 °C.

For `Cc1ccc(S(=O)(=O)N2CCC(c3cccc4c3CCCC(C(=O)Nc3ccc(CN(C)C5CCOCC5)cc3)=C4)CC2)cc1`, the melting point is 175 to 176 °C.

`CCCCOc1ccc2c(O)c(C(=O)NCC(=O)O)ncc2c1` had a melting point of 151 to 153 °C.

Take `CNC1=NS(=O)(=O)N=C1NCCCCc1ccc(CN(C)C)o1`: the melting point was in the range of 152 to 153 °C.

Take `CC(=O)Nc1nc(O)c2cc(C=Cc3ccc(C(=O)OC(C)=O)cc3)cnc2n1`: the melting point is greater than 300 °C.

In turn, `COc1ccc(S(=O)(=O)N(CC(=O)NO)Cc2ccccc2)cc1` returned a melting point of 112 to 114 °C.

In turn, `Fc1ccc2c(CN3CCc4ccccc4C3)c[nH]c2c1` had a melting point of 144 to 145 °C.

The compound `CCCN1CC=C(c2c[nH]c3ccc(OC)cc23)CC1` had a melting point of 164 °C.

Compound `COC(=O)c1cc(Cl)cnc1OC` came in with a melting point of 79 to 81 °C.

Compound `O=C(NC1CC1)c1ccccc1SSc1ccccc1C(=O)NC1CC1` showed a melting point of 257 to 259 °C.

In turn, `CCOC(=O)O[C@H](c1ccc(S(C)(=O)=O)cc1)[C@@H](CF)NC(=O)C(Cl)Cl` showed a melting point of 110 to 112 °C.

Take `O=C(NCCCCCn1cncn1)c1ccc(Cl)cc1`: the melting point is 68 to 70 °C.

As for `O=[N+]([O-])c1cc(F)ccc1NC1CCCCC1`, the melting point came out at 93 °C.

In turn, `COC1C(O)C(CO)OC1n1ccc(N)nc1=O` (configuration not stated) registered a melting point of 252 to 254 °C.

The compound `COC(=O)C(C)(C)S(=O)(=O)N1CCC(c2ccc(-c3cccc(OCCO)n3)c(C)c2)CC1` yielded a melting point of 108 to 111 °C.

As for `COc1ccc2c(c1)Sc1cc(C#N)ccc1N2`, the melting point was in the range of 198 to 199 °C.

On to `COC(=O)c1ccc(-c2ccc(OC)cc2)cc1`, for which the melting point fell in the range of 170 to 173 °C.

Consider `OC(Cc1ccc(Cl)cc1Cl)(Cn1cnnc1)c1ccc(-c2ccccc2)cc1` (configuration not stated), for which the melting point stood at 260 °C.

For the compound `FC(F)(F)c1cccc(C(CC2=NCCN2)c2ccc3ccccc3n2)c1` (configuration not stated), the melting point is 92 to 93 °C.

In turn, `O=C(O)C(S)=Cc1ccc(C(F)(F)F)o1` yielded a melting point of 158 °C.

Regarding `Clc1ccc([C@@]2(Cn3ccnc3)OC[C@H](COc3ccc4c(c3)CCN(Cc3ccc(-c5ccccc5)cc3)C4)O2)c(Cl)c1` (racemic), the melting point was in the range of 103 to 105 °C.

On to `Cc1c(C)c2c(c(C)c1O)CCC(C)(C(=O)NN(C)C)O2` (configuration not stated), for which the melting point is 145 to 146 °C.

Turning to `O=C(N[C@H]1CCCNC1=O)OCc1ccccc1`, the melting point lay within 100 to 102 °C.

`CCc1coc2c(-c3ccc(F)cc3)c(-c3ccc(S(N)(=O)=O)cc3)nn12` registered a melting point of 234 to 236 °C.

For the compound `COC(=O)CC/C(C)=C/Cc1c(O)c2c(c(C)c1OC)COC2=O`, the melting point lay in the range of 104 to 105 °C.

For the compound `C#CCNC(=O)c1cccc(-c2cccc(OCCc3ccc(OC)c(OC)c3)n2)c1`, the melting point is 142 to 143 °C.

In the case of `O=C(Nc1ccc2ccc(Cl)nc2n1)C1=CCC=CC1`, the melting point turned out to be 210 °C.

Consider `C[C@H]1NC(C)(C)CO[C@]1(O)c1cccc(Cl)c1`, for which the melting point fell in the range of 128 to 131 °C.

`COC(=O)CC1C(OC(C)=O)CC(=O)C1C(=O)OC` (configuration not stated) returned a melting point of 54 °C.

With `CCCCOc1nc2cccc(C(=O)OC)c2n1Cc1ccc(-c2ccccc2C#N)cc1`, the melting point fell in the range of 74 to 75 °C.

`CNC(=O)c1cccc2c1C1(COc3cc4c(cc31)OCCO4)C(=O)N2C` (configuration not stated) came in with a melting point of 120 to 122 °C.

For `Nc1cc(F)ccc1C(=O)C1CCN(CCn2c(=O)[nH]c3ccccc3c2=O)CC1`, the melting point worked out at 270 °C.

`O=[N+]([O-])c1cccc(OCc2ncc3ccccc3n2)c1` returned a melting point of 125 to 127 °C.

In turn, `C=Cc1ccc(C(C#N)C#N)cc1` displayed a melting point of 40 to 42 °C.

On to `CCN1c2ncccc2C(=O)N(C)c2ccc(-c3c[nH]c(C(C)=O)c3)nc21`, for which the melting point was 219 to 220 °C.

`Cc1ccc(N(c2ccc(C)cc2)c2ccc(C(O)(CCCO)CCCO)cc2)cc1`: the melting point was in the range of 131 to 132 °C.

In turn, `NC(=NCC(F)(F)F)Nc1cnn(-c2cccc(C(=O)NCCO)c2)n1` returned a melting point of 171 to 173 °C.

In turn, `CN1CCN(c2ccc(Nc3ncc4c(n3)S/C(=C/c3ccc(C(N)=O)cc3)C(=O)N4)cc2)CC1` came in with a melting point of 294 to 298 °C.

Take `COC(=O)c1ccc2c(c1)C(SCCCl)c1ccccc1CO2` (configuration not stated): the melting point was in the range of 100 to 102 °C.

Compound `O=C(NC1CCN(CCc2ccc3ccccc3c2)CC1)c1ccccc1` yielded a melting point of 189 to 191 °C.

Take `N#CC(=NNc1c(Cl)cc(C(F)(F)F)cc1Cl)c1ccc(C#N)cc1`: the melting point is 186 to 187 °C.

As for `Cn1c(=O)n(S(=O)(=O)c2ccc(Cl)cc2)c(=O)c2ccc(Cl)cc21`, the melting point was 205 to 208 °C.

The compound `O=C(O)CCc1cc(CCN2CCC(C(=O)c3ccc(F)cc3)CC2)cc2c1CCC(NS(=O)(=O)c1ccc(Cl)cc1)C2` (configuration not stated) gave a melting point of 210 °C.

Compound `COc1ccc(CN2CCN(C3=NC4(C=CC(=O)C=C4)C(c4ccc(OC)cc4)=C3)CC2)cc1` had a melting point of 142 °C.

`CCc1nc(NCC(C)O)c2c(n1)c(C)nn2C` (configuration not stated) showed a melting point of 116 to 119 °C.

For `Cc1ccc([N+](=O)[O-])cc1NC(N)=S`, the melting point lay within 164 to 166 °C.

`CC(C(=O)O)c1ccc2[nH]ncc2c1` (configuration not stated): the melting point was 91 to 96 °C.

`Nc1cc(-n2cc(C(=O)O)c(=O)c3cc(F)c(NCC(O)C(F)(F)F)c(Cl)c32)c(F)cc1F` (configuration not stated) displayed a melting point of 134 to 138 °C.

In the case of `CCn1cc(CN(C(=O)C2CCCc3ccc(O)cc32)c2ccc(C(C)C)cc2)cn1` (configuration not stated), the melting point was in the range of 169 to 170 °C.

On to `O=C1CCCN1CCCC(=O)N1CCC(C2c3ncc(Br)cc3CCc3cc(Cl)cc(Br)c32)CC1` (single isomer, unassigned; (+)), for which the melting point is 127 to 128 °C.

In turn, `COC(=O)c1ccc(CCNC(=O)C[C@H]2O[C@H](c3cccc(OC)c3OC)c3cc(Cl)ccc3N(CC(C)(C)CO)C2=O)cc1` showed a melting point of 167 to 169 °C.
